In one series the test system is IL-6. Briefly: In vivo dose finding: plasma IL-6 after LPS challenge. More on the design: species or system mouse. The conditions noted are these: 50 µg to 50 mg/kg-BW/day in drinking water, 2 weeks; LPS 0.4 mg/kg-BW i.p.; 5 and 50 mg/kg most significant. As to the method: We then initiated dose response and safety studies in mice to determine testing dosages and safety of DHCA and Mal-gluc. C57BL/6 mice were treated with either DHCA (doses ranging from 50 µg to 50 mg/kg-BW/day) or Mal-gluc (doses ranging from 50 ng to 5 mg/kg-BW/day) for 2 weeks to simulate long-term administration. Mice treated with DHCA were challenged with intraperitoneal (i.p.) injection of 0.4 mg/kg-BW LPS and plasma levels of IL-6 were measured 6 h post injection. […] Following common discovery-stage practices, we measured the plasma levels of alkaline phosphatase (ALP), aspartate aminotransferase (AST), and alanine aminotransferase (ALT) for liver function and blood urea nitrogen (BUN) for renal function.
Male C57BL/6 J mice (8-week-old) were placed on a polyphenol-free AIN-93M diet and treated with various doses of DHCA (vehicle, 50 µg, 500 µg, 5 mg, and 50 mg/kg-BW/day), delivered through their drinking water for two weeks. Animals were then sacrificed and plasma was collected for routine biochemistry panel analysis including ALP, ALT, and AST for liver function and blood urea nitrogen (BUN) content for kidney function. A separate group of mice was similarly treated and challenged with an i.p. injection of 0.4 mg/kg body weight LPS and plasma was collected 6 h post injection for IL-6 analysis. […]

In series [1] the test system is Rac1 promoter histone H3 acetylation / H3K27 trimethylation. The series is described as follows: Quantitative ChIP along the Rac1 promoter in MSN-enriched primary cultures. The series is classed as cell-based, mouse. The source says:
(§1) Stress-induced reduction of Rac1 expression is associated with a repressed chromatin state surrounding the promoter region of Rac1 in the NAc[11]. Since Mal-gluc can cross the BBB, we hypothesized that Mal-gluc may promote Rac1 expression, in part, by modulating chromatin acetylation. We first assessed the effect of Mal-gluc on HDACs that play key roles in chromatin deacetylation. […] Using site directed quantitative chromatin immunoprecipitation (qCHIP), we examined the permissive histone H3 acetylation (AcH3) in Mal-gluc treated MSN-enriched primary cultures.
Site-directed qChIP was performed for pan-acH3 and H3K27me3 as described previously with modification. Neurons were washed once with PBS and crosslinked in 1% formaldehyde for 15 min, quenched by glycine at a final concentration of 125 mM. Neurons were then rinsed with cold PBS containing protease inhibitor cocktail (Sigma) and scraped off the plate. Cells were resuspended and sonicated with a Bioruptor (15 cycles, 30 sec on/off), which produces chromatin fragments ~350 bp in length. […] Levels of specific histone modifications along the Rac1 promoter were determined by measuring the amount of acetylated or methylated histone-associated DNA using quantitative real-time PCR as previously described.

The test system of series [2] is HDAC2 and other class I or class II HDACs. Briefly: HDAC gene expression in MSN-enriched primary culture. The series is classed as cell-based, mouse. The conditions noted are these: MSN-enriched primary cultures.
Text: as §1
Striatal tissue from E18 was mechanically triturated and centrifuged. Neurons were seeded onto a poly-D-lysine-coated 12-well plate at 5 × 10^5 cells/well and cultured in Neurobasal medium, supplemented with 2% B27, 0.5 mM L-glutamine, and 1% penicillin-streptomycin (Gibco-BRL, Invitrogen). Following 4 days in vitro (DIV), 5 µM of Ara-c was used to inhibit the growth of glial cells. Following 10-day DIV culturing, neurons were treated with select brain-bioavailable polyphenol metabolites for 16 h, washed once with cold PBS and RNA was then isolated. […]
Total RNA from MSN-enriched cultures or brain NAc was isolated using the RNeasy Mini Kit (Qiagen, Valencia, CA, USA) and reverse transcribed. Gene expression was measured in four replicates by quantitative RT-PCR using Maxima SYBR Green master mix (Fermentas) in ABI Prism 7900HT. […]

Series [3] is described as follows: Plasma protein binding, mouse plasma. The series is classed as in vitro ADME. As to the method: Compound stability in mouse and human plasma and in mouse brain homogenate were conducted, [45]. Specifically, Mal-gluc or DHCA was incubated in duplicate with plasma at 37 °C and samples were taken at various time points and mixed with three volumes of ice-cold Stop Solution (methanol containing propranolol, diclofenac, or other internal standard). Samples were centrifuged to remove precipitated protein, and the supernatants were analyzed by LC/MS/MS to quantitate for remaining test compound. Data are converted to percentage remaining by dividing by the time zero concentration value. Data are fit to a first-order decay model to determine half-life. Plasma protein binding were conducted using both mouse and human plasma.

This is an account of results in article PMC5797143, “Epigenetic modulation of inflammation and synaptic plasticity promotes resilience against stress in mice” (Nature Communications, 2018).

Each structure is given as a SMILES string.

As for `O=C(O)CCc1ccc(O)c(O)c1` [DHCA, 3(3,4-dihydroxy-phenyl) propionic acid], the “plasma IL-6 6 h post LPS injection” value in the series on IL-6 is on record as “dose-dependent suppression of IL-6”.

For `COc1cc(-c2[o+]c3cc(O)cc(O)c3cc2O[C@@H]2O[C@H](CO)[C@@H](O)[C@H](O)[C@H]2O)cc(OC)c1O` [Mal-gluc], in series [1], the “repressive trimethylation of the Rac1 promoter (H3K27)” value was “no effect on the repressive trimethylation”. The “permissive histone H3 acetylation (AcH3) of Rac1” value in series [1] (compared to vehicle, across the region surveyed) is reported as “significantly increased permissive acetylation”. Besides, in series [2], the “expression of HDAC2” value is recorded as “significantly reduced the expression of HDAC2” and the “expression of other class I or class II HDACs” value was “no observable effect”. For the same compound, the “Plasma protein binding, Mean fraction unbound (mouse plasma)” value in series [3] is given as 55.70%.
